Measured values reported in PubChem BioAssay AID1645848.
In brackets after ≈: the same amount, converted by molar mass.

Settings: buffer; pH 7.4; 6.0 h; 150.0 µM

SMILES	solubility kinetic [µg/mL]
CNC(=O)C1CCN(c2nc(-c3ccc(Br)cc3)cs2)CC1	3.67 (≈ 9.64 µM)
COc1ccc2c(c1)/C(=C/c1cnc[nH]1)C(=O)N2	> 36
CCc1ccc(NC(=O)c2[nH]c(C)c(C(C)=O)c2C)cc1[S+](=O)([O-])Nc1ccccc1C#N	40.3 (≈ 86.8 µM)
CC(C)c1ccccc1-c1ncc(F)c(NCc2ccc(-n3ccnn3)cc2)n1	2.13 (≈ 5.49 µM)
Brc1ccc(-c2csc(N3CCOCC3)n2)cc1	1.12 (≈ 3.44 µM)
COc1cccc(-c2noc(Nc3ccc4c(c3)OCCO4)n2)c1	< 1
Cc1ccc(NC(=O)c2ccncc2NS(=O)(=O)c2ccc(C)cc2)cc1	47.5 (≈ 125 µM)
CC1CCC(NC(=O)c2ccc3c(c2)N(Cc2ccccc2F)C(=O)c2ccccc2S3)CC1 (centres undefined)	1.06 (≈ 2.24 µM)
CC(=O)c1c(C)[nH]c(C(=O)Nc2cccc([S+](=O)([O-])Nc3ccccc3C)c2)c1C	< 1
COc1ccc(-n2nc(C3CCCN(CC4CCCCC4)C3)[nH]c2=O)cc1 (centres undefined)	> 37
CNc1nccc(-c2cccc3ccccc23)n1	4.49 (≈ 19.1 µM)
CC1(C)CCC(c2ccc(Cl)cc2)=C(CN2CCN(c3ccc(C(=O)NS(=O)(=O)c4ccc(N[C@H](CCN5CCOCC5)CSc5ccccc5)c(S(=O)(=O)C(F)(F)F)c4)cc3)CC2)C1	< 1
NC(=O)C1CCN(c2nc(-c3ccccc3Cl)cs2)CC1	> 47
O=C(c1ccc2c(c1)OCO2)N1CCC(Cc2nc(-c3cnccn3)no2)CC1	> 39
COc1ccc(Nc2cc3c(nc2OC)nc(CCc2ccccc2)n3C)cn1	22.4 (≈ 57.5 µM)
CCS(=O)(=O)c1ncc(N(Cc2ccc(F)cc2)Cc2ccco2)c(C(=O)Nc2cc(C)ccc2C)n1	< 1
CN1CCN(c2ccc(-c3cccc(CN4CCOCC4)c3)cc2NC(=O)c2c[nH]c(=O)cc2C(F)(F)F)CC1	69.1 (≈ 124 µM)
COc1cccc(C(=O)Nc2nc(-c3nnn(-c4ccccc4C(F)(F)F)c3C)ns2)c1	1.03 (≈ 2.24 µM)
COCCNc1ncc(-c2cccc(O)c2)c2c1OCC2	> 85
COc1ccc(NC(=O)C2=C(C)NC(Nc3nc4ccccc4o3)=NC2c2ccccc2Br)cc1 (centres undefined)	< 1
Clc1ccc(C2(c3ccc(-c4cn[nH]c4)cc3)CCNCC2)cc1	> 50
NC(=O)C1CCN(c2ncc(-c3ccc4c(c3)OC(F)(F)O4)s2)CC1	< 1
Cc1ccc(-n2ncc3c(NCCCn4ccnc4)ncnc32)cc1Cl	4.07 (≈ 11.1 µM)
COc1cccc(-c2cn3c(n2)sc2cc(C(=O)NCCc4ccc(OC)c(OC)c4)ccc23)c1	< 1
CCOc1ccc(CCNC(=O)c2ccc(Oc3ccccc3)cc2)cc1OCC	< 1

SMILES	solubility kinetic [µg/mL]
Cn1ccc2cc(-c3csc(N4CCC(C(N)=O)CC4)n3)ccc21	32.9 (≈ 96.7 µM)
Cc1cccc(C(=O)N2CCc3cc(-c4nc(NC(=O)Cc5ccc6c(c5)OCO6)sc4C)ccc32)c1	4.07 (≈ 7.96 µM)
O=C1Nc2ccc(I)cc2/C1=C/c1cc(Br)c(O)c(Br)c1	< 1
Cc1ccc(S(=O)(=O)Nc2cnccc2C(=O)NCc2ccccc2)cc1	> 56
COc1ccc(C(=O)NC2CCCc3c2[nH]c2ccccc32)cc1OC (centres undefined)	4.79 (≈ 13.7 µM)
COC(=O)c1ccc(NC(=O)c2nc3ccccc3n(C)c2=O)cc1	< 1
OCCNc1ncnc2c1ncn2[C@@H]1O[C@@H](CO)[C@H](O)[C@@H]1O	> 46
O=C(Nc1ccc(N2CCN(c3ncccc3C(F)(F)F)CC2)nc1)c1cccs1	< 1
NC(=O)COc1ccc(C2CC(=O)Nc3n[nH]c(Nc4ccccc4)c32)cc1 (centres undefined)	41.7 (≈ 110 µM)
O=C(Nc1nc(-c2ccccc2)cs1)c1ccncc1NS(=O)(=O)c1cccc(Cl)c1	< 1
Oc1ccc(CNc2cccnc2)c2cccnc12	24.5 (≈ 97.5 µM)
CCOc1ccc(CCNC(=O)c2cc3ccccc3n2Cc2cccc(C)c2)cc1OCC	< 1
COc1cccc(CNc2ccc(S(=O)(=O)Nc3nccs3)cc2)c1N	> 58
C[S+](=O)([O-])N1CCC(Cn2ccc3c(N4CCOCC4)nc(-c4cccc5[nH]ccc45)cc32)CC1	< 1
COC(=O)c1ccnc(-c2cc(C(=O)Nc3ccc(C4(N)CC4)cc3)ccn2)c1	12.8 (≈ 32.8 µM)
O=C(NCCc1ccccn1)C1CC(=O)N(c2n[nH]c3cc(Br)ccc23)C1 (centres undefined)	5.42 (≈ 12.7 µM)
COc1ccc(NC2CCCN(C(=O)CCc3ccccc3F)C2)cc1 (centres undefined)	41.3 (≈ 116 µM)
CCOC(=O)c1ccc(N2C(=O)c3n[nH]c(-c4cccs4)c3C2c2ccc(Cl)cc2Cl)cc1 (centres undefined)	< 1
Cc1ccc(S(=O)(=O)Nc2cccc(C(=O)Nc3nc(-c4ccccc4)cs3)c2)cc1	< 1
O=C(NC1CCCc2c1cnn2-c1cccc(O)c1)c1ccccn1 (centres undefined)	40 (≈ 120 µM)
CNc1nc(-c2cccc3ccccc23)ccc1C#N	< 1
CNc1nc2c(s1)C(c1ccc(Cl)cc1)CC(=O)N2 (centres undefined)	10.8 (≈ 36.6 µM)
O=C(Nc1ncc(Cc2ccc(C(F)(F)F)cc2)s1)c1cn(-c2ccccc2)cn1	< 1
c1ccc2c(Nc3ccn[nH]3)nc(-c3ccncc3)nc2c1	< 1
Cc1ccc(S(=O)(=O)Nc2cnccc2C(=O)Nc2ccc(C#N)cc2)cc1	> 58

SMILES	solubility kinetic [µg/mL]
Oc1ccc(-c2nc(C3CC3)nc3c2CCN(Cc2ccc(F)cc2)CC3)cc1	8.86 (≈ 22.8 µM)
O=C(Nc1nc(-c2ccccc2)cs1)c1ccncc1NS(=O)(=O)c1cccs1	< 1
OCC(O)CCO/N=C1/C(c2c(O)[nH]c3ccccc23)=Nc2ccccc21 (centres undefined)	< 1
COc1cc(Cl)ccc1C(=O)Nc1nc(-c2ccccc2)cs1	< 1
COc1ccccc1Nc1ccnc(N2CCN(C(=O)c3ccc(C)cc3)CC2)n1	2.64 (≈ 6.54 µM)
Cc1noc(C)c1S(=O)(=O)Nc1cnccc1C(=O)Nc1nc(-c2ccccc2)cs1	> 66
CN(C)C(=O)C1CCN(c2nc(-c3ccc(Br)cc3)cs2)CC1	1.8 (≈ 4.56 µM)
CN(C)c1ccccc1-c1csc(N2CCC(C(N)=O)CC2)n1	> 49
CCOc1ccccc1C(=O)Nc1ccccc1C(=O)Nc1cccc(C(F)(F)F)c1	< 1
Cc1ccc(-n2nc(C)c3c(-c4ccc(O)c(O)c4)c(C#N)c(N)nc32)cc1C	1.81 (≈ 4.7 µM)
O=C(Nc1ncc(Cc2cccc(C(F)(F)F)c2)s1)c1ccc(-c2cccc([N+](=O)[O-])c2)o1	< 1
COC(=O)C1=C(C)NC(=O)CC1C(=O)Nc1ccc(Cl)cc1 (centres undefined)	31.2 (≈ 96.8 µM)
CC(C)(C)CC(C)(C)c1ccc(O)cc1	2.09 (≈ 10.1 µM)
O=C(Nc1nc(-c2ccccc2)cs1)c1ccncc1NS(=O)(=O)c1ccccc1F	38.8 (≈ 85.4 µM)
CCN(CC)CCCCNc1ncc2cc(-c3c(Cl)cccc3Cl)c(NC(=O)NC(C)(C)C)nc2n1	34.7 (≈ 65.2 µM)
COc1ccc(OC)c(-n2c3c(cc(-c4nc(-c5ccc(Cl)cc5)cs4)c2=O)C(=O)CC(C)(C)C3)c1	< 1
CN(C)CCOC1=Cc2ccccc2Sc2ccc(Cl)cc21	26 (≈ 78.4 µM)
Cc1nc2ccc(NC(=O)c3cc(S(=O)(=O)N(C)c4ccccc4)ccc3Cl)cc2s1	< 1
Ic1ccccc1CNC1C2CCN(CC2)C1C(c1ccccc1)c1ccccc1 (centres undefined)	> 75
COc1ccc(C2c3c(oc4ccc(Cl)cc4c3=O)C(=O)N2CCCN(C)C)cc1OC (centres undefined)	> 67
COc1ccccc1CNc1ccc(N2CCCCC2)cc1	12.9 (≈ 43.5 µM)
CCN(CC)c1ccc(Nc2nc(Cl)ncc2Br)cc1	4.94 (≈ 13.9 µM)
CC(O)(C#Cc1ccc2c(c1)N(c1nc(N)ncc1Cl)CC2)c1nccs1 (centres undefined)	11.9 (≈ 29.9 µM)
COc1cccc(NS(=O)(=O)c2ccc(NCc3cccc(OC)c3O)cc2)c1	1.92 (≈ 4.64 µM)
N[C@@H]1CN(c2c(F)cc3c(=O)c(C(=O)O)cn([C@@H]4C[C@@H]4F)c3c2Cl)CC12CC2	> 60

SMILES	solubility kinetic [µg/mL]
CC(=O)c1c(C)c(C(=O)Nc2cccc([S+](=O)([O-])N3CCCCCC3)c2)n(C)c1C	< 1
CCN(CC)S(=O)(=O)c1ccc2oc(C(=O)Nc3ccc(Br)cc3F)c(C)c2c1	< 1
O=C(Nc1ncc(Cc2ccc(C(F)(F)F)cc2)s1)c1cnc(-c2ccccc2)[nH]1	< 1
Cc1ccc(S(=O)(=O)NCC(=O)Nc2nc(-c3ccccc3)cs2)cc1	< 1
CCOC(=O)N1CCN(Cc2nc3cc(NC(=O)CC(C)C)ccc3n2C(C)C)CC1	> 63
Fc1ccc(Oc2nc(-c3ccncc3)nc3ccccc23)cc1F	6.95 (≈ 20.7 µM)
CCc1ccc(NC(=O)c2[nH]c(C)c(C(C)=O)c2C)cc1S(=O)(=O)Nc1ccc(C#N)cc1	2.19 (≈ 4.72 µM)
CC(C)(O)Cn1c(NC(=O)c2ccc(-c3cn[nH]c3)s2)nc2cc(CN3CCOCC3)ccc21	47 (≈ 97.8 µM)
O=S(=O)(Nc1ccc2ccccc2c1)c1ccc(NCc2cccc(Cl)c2O)cc1	< 1
Cc1cc(-c2nc(Nc3ccc(F)c(F)c3)c3ccccc3n2)ccn1	< 1
Cc1ccc(C(=O)Nc2cccc(C(F)(F)F)c2)cc1Nc1nc(-c2cccnc2)nc2c1cnn2C	< 1
Cc1cnc(-c2ccccc2OC(C)C)nc1NCc1ccc(-n2ccnn2)cc1	41.4 (≈ 103 µM)
CCN(CC)CCCNC(=O)c1oc2c(c1C)-c1nn(Cc3ccc(Cl)cc3)cc1CC2	> 67
NC(=O)C1CCN(c2nccc(Cl)n2)CC1	> 35
Cn1nnnc1Sc1ncnc2scc(-c3ccccc3F)c12	1.2 (≈ 3.48 µM)
CC(=O)c1c(C)[nH]c(C(=O)Nc2cccc(S(=O)(=O)N3CCCCC3)c2)c1C	4.57 (≈ 11.3 µM)
CCN(CC)CCOc1ccc2c(=O)c3ccc(Cl)cc3n(CCN(CC)CC)c2c1	> 66
CCc1ccc(NC(=O)CSC2=Nc3ccccc3C3=NC(CC(=O)NCc4ccc5c(c4)OCO5)C(=O)N23)cc1 (centres undefined)	2.36 (≈ 4.15 µM)
Cc1cc(-c2nnc3n2CCCCC3)c(C)n1-c1ccc(C#N)cc1	> 49
Cc1ccc(-c2cc(C(=O)Nc3cccc(S(N)(=O)=O)c3)c3ccccc3n2)cc1C	< 1
O=C(O)Cn1c(C(=O)Nc2nc(-c3ccccc3Cl)cs2)cc2ccccc21	> 61
COc1cccc(CNc2ccc(S(=O)(=O)Nc3nccs3)cc2)c1OC	3.6 (≈ 8.88 µM)
CCOC(=O)N1CCN(Cc2nc3c(c(=O)n(C)c(=O)n3C)n2CCC(C)C)CC1	> 62
COc1ccc(S(=O)(=O)N2CCCCCC2)cc1NC(=O)Cc1n[nH]c(=O)c2ccccc12	8.46 (≈ 18 µM)
